Common to all, as to type: in vivo
Assay [1] deals with barnyardgrass (Echinochloa crusgalli). Put plainly: Postemergence herbicidal activity, barnyardgrass. The note with it: Post, 2 lb/A; for pest or weed control at 2241.7 g/ha: Echinochloa crus-galli, post-emergence, 336 h. Put shortly: (§1)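 Flats of soil-planted weed seeds were treated either right after sowing (preemergence) or two weeks after germination (postemergence). Application was a spray of acetone solution diluted in water, 50 gallons per acre carrier, dosed in lb/A.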

Assay [2] relates to cocklebur (Xanthium pensylvanicum). In words: Postemergence herbicidal activity, cocklebur. The settings on record: 2 lb/A; for % control, Cocklebur: Post; for pest or weed control at 2241.7 g/ha: Xanthium strumarium, post-emergence, 336 h. Put shortly: (§2)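 Compound in acetone/water sprayed on soil flats at 50 gal/acre carrier volume, at rates given in lb/A. Preemergence: applied right after planting; postemergence: applied two weeks after germination. Scored about two weeks later as average percent of plants killed.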

For assay [3] the test system is unchanged. In words: Preemergence herbicidal activity, cocklebur. The settings on record: 2 lb/A; for pest or weed control at 2241.7 g/ha: Xanthium strumarium, pre-emergence, 336 h; for % control, Cocklebur: Pre. The procedure, abridged: as §2
For assay [4], the system named is downybrome (Bromus tectorum). In words: Preemergence herbicidal activity, downybrome. The settings on record: Pre, 2 lb/A; for pest or weed control at 2241.7 g/ha: Bromus tectorum, pre-emergence, 336 h. The procedure, abridged: as §2
Assay [5] concerns velvetleaf (Abutilon theophrasti). In words: Postemergence herbicidal activity, velvetleaf. The note with it: 2 lb/A; for % control, Velvetleaf: Post; for pest or weed control at 2241.7 g/ha: Abutilon theophrasti, post-emergence, 336 h. Put shortly:
as §1

The test system of assay [6] is yellow nutsedge (Cyperus esculentus). In words: Preemergence herbicidal activity, yellow nutsedge. The note with it: 2 lb/A; for pest or weed control at 2241.7 g/ha: Cyperus, pre-emergence, 336 h; for % control, Nutsedge: Pre. Put shortly: as §2
The test system of assay [7] is morningglory (Ipomoca spp.). Put plainly: Postemergence herbicidal activity, morningglory. The settings on record: 2 lb/A; for % control, Morningglory: Post; for pest or weed control at 2241.7 g/ha: Ipomoea, post-emergence, 336 h. Put shortly: as §2
Assay [8] deals with marigold (Tagetes spp.). Put plainly: Preemergence herbicidal activity, marigold. The note with it: 2 lb/A; for pest or weed control at 2241.7 g/ha: pre-emergence, 336 h; for % control, Marigold: Pre. The procedure, abridged: as §2
Assay [9] has as its system wild oats (Avena fatua). In words: Postemergence herbicidal activity, wild oats. The note with it: Post, 2 lb/A; for pest or weed control at 2241.7 g/ha: Avena fatua, post-emergence, 336 h, read-out: % control, Wild oat. The procedure, abridged:
as §2

For assay [10], the system named is morningglory (Ipomoca spp.). In words: Preemergence herbicidal activity, morningglory. The note with it: 2 lb/A; for % control, Morningglory: Pre; for pest or weed control at 2241.7 g/ha: Ipomoea, pre-emergence, 336 h. The procedure, abridged:
as §2

Assay [11] concerns velvetleaf (Abutilon theophrasti). In words: Preemergence herbicidal activity, velvetleaf. The note with it: Pre, 2 lb/A; for pest or weed control at 2241.7 g/ha: Abutilon theophrasti, pre-emergence, 336 h. The procedure, abridged: as §2
Assay [12] has as its system yellow nutsedge (Cyperus esculentus). In words: Postemergence herbicidal activity, yellow nutsedge. The note with it: 2 lb/A; for pest or weed control at 2241.7 g/ha: Cyperus, post-emergence, 336 h; for % control, Nutsedge: Post. The procedure, abridged:
as §2

The test system of assay [13] is foxtail (Setaria spp.). Put plainly: Preemergence herbicidal activity, foxtail. The note with it: Pre, 2 lb/A; for pest or weed control at 2241.7 g/ha: Setaria, pre-emergence, 336 h. The procedure, abridged:
as §2

Assay [14] deals with wild oats (Avena fatua). In words: Preemergence herbicidal activity, wild oats. The settings on record: Pre, 2 lb/A; for pest or weed control at 2241.7 g/ha: Avena fatua, pre-emergence, 336 h, read-out: % control, Wild oat. Put shortly: as §2
The subject of assay [15] is tomato (Lycopersicon esculentum). Put plainly: Preemergence herbicidal activity, tomato. The note with it: Pre, 2 lb/A; for pest or weed control at 2241.7 g/ha: Solanum lycopersicum, pre-emergence, 336 h. The procedure, abridged:
as §2

Assay [16] shares this test system. In words: Postemergence herbicidal activity, tomato. The note with it: Post, 2 lb/A; for pest or weed control at 2241.7 g/ha: Solanum lycopersicum, post-emergence, 336 h. Put shortly:
as §2

Assay [17] has as its system foxtail (Setaria spp.). Put plainly: Postemergence herbicidal activity, foxtail. The settings on record: Post, 2 lb/A; for pest or weed control at 2241.7 g/ha: Setaria, post-emergence, 336 h. The procedure, abridged:
as §2

Assay [18] relates to downybrome (Bromus tectorum). Put plainly: Postemergence herbicidal activity, downybrome. The settings on record: Post, 2 lb/A; for pest or weed control at 2241.7 g/ha: Bromus tectorum, post-emergence, 336 h. Put shortly:
as §2

The subject of assay [19] is marigold (Tagetes spp.). In words: Postemergence herbicidal activity, marigold. The note with it: 2 lb/A; for % control, Marigold: Post; for pest or weed control at 2241.7 g/ha: post-emergence, 336 h. The procedure, abridged:
as §2

Assay [20] concerns barnyardgrass (Echinochloa crusgalli). Put plainly: Preemergence herbicidal activity, barnyardgrass. The settings on record: Pre, 2 lb/A; for pest or weed control at 2241.7 g/ha: Echinochloa crus-galli, pre-emergence, 336 h. The procedure, abridged: as §1

Turning to `CC(Oc1ccc(Oc2ccc(C(F)(F)F)cc2Cl)cc1)C(=O)O` (stereo not shown) [Example 6, 2-[4-(2-Chloro-4-trifluoromethylphenoxy)phenoxy] propionic acid], the pest or weed control at 2241.7 g/ha turned out to be 100% in [1]; 0% in [3]; 0% in assay [6]; 0% in the assay with marigold (Tagetes spp.) [8]; 0% in assay [11]; 0% in assay [12]. The pest or weed control at 2241.7 g/ha in the assay on foxtail (Setaria spp.) [13] turned out to be 100%; in [15], 0%; in the assay on foxtail (Setaria spp.) [17], 95%; in [20], 100%. Also, the “% control, Cocklebur” value in assay [2] worked out at 50%. Further, the “% control, Downybrome” value in assay [4] was determined as 40%; in assay [18], 30%. For the same molecule, in [5], the “% control, Velvetleaf” value stood at 20%. Moreover, the entries for the “% control, Morningglory” value in assay [7] and in [10] were 40% and 0%, respectively. Besides, the “% control, Wild oat” value amounted to 95% in the assay with wild oats (Avena fatua) [9] and 20% in the assay with wild oats (Avena fatua) [14]. Further, the “% control, Tomato” value in [16] was 80%. For the same molecule, the “% control, Marigold” value in the assay on marigold (Tagetes spp.) [19] was determined as 20%.
With `CC(Oc1ccc(Oc2ccc(C(F)(F)F)cc2Cl)cc1)C(=O)O` (stereo not shown) [Example 12], the “% control, Barnyardgrass” value in assay [1] and in assay [20] was 100% each time. Besides, the “% control, Cocklebur” value in [2] and in assay [3] was 0% in each case. The entries for the “% control, Downybrome” value in assay [4] and in [18] were 0% and 60%, respectively. The “% control, Velvetleaf” value in [5] and in assay [11] was 0% each time. The “% control, Nutsedge” value in [6] and in assay [12] was 0% in each case. In addition, the “% control, Morningglory” value in assay [7] and in assay [10] was 0% throughout. The “% control, Marigold” value with marigold (Tagetes spp.) [8] and in the assay with marigold (Tagetes spp.) [19] was 0% throughout. In addition, the figures for the “% control, Wild oat” value in the assay on wild oats (Avena fatua) [9] and in the assay with wild oats (Avena fatua) [14] were 70% and 60%, respectively. Further, the “% control, Foxtail” value in the assay on foxtail (Setaria spp.) [13] and in the assay on foxtail (Setaria spp.) [17] was 100% in each case. In addition, the “% control, Tomato” value in assay [15] and in assay [16] was 0% in each case.
With `CCCOC(=O)C(C)Oc1ccc(Oc2ccc(C(F)(F)F)cc2Cl)cc1` (stereo not shown) [Example 32], the pest or weed control at 2241.7 g/ha in assay [1] is 100%; in assay [2], 0%; in assay [3], 0%; in [4], 80%; in [5], 30%; in assay [6] it was 0%. For the same molecule, the pest or weed control at 2241.7 g/ha in [7] was 0%; in the assay with marigold (Tagetes spp.) [8], 0%; with wild oats (Avena fatua) [9], 100%; in assay [10], 0%; in assay [11], 0%; in assay [12], 0%. The pest or weed control at 2241.7 g/ha with foxtail (Setaria spp.) [13] stood at 100%; in the assay with wild oats (Avena fatua) [14], 80%; in [15], 0%; in assay [16] it was 30%; in the assay on foxtail (Setaria spp.) [17] it was 100%; in assay [18], 100%. Also, the pest or weed control at 2241.7 g/ha with marigold (Tagetes spp.) [19] was 20%; in [20], 100%.
Take `CC(Oc1ccc(Oc2ccc(C(F)(F)F)cc2Cl)cc1)C(=O)O` (stereo not shown) [Example 13]: the “% control, Barnyardgrass” value in [1] and in assay [20] was 100% each time. Moreover, the “% control, Cocklebur” value in [2] and in [3] was 0% in each case. The “% control, Downybrome” value in assay [4] was found to be 70%; in [18], 20%. Moreover, the “% control, Velvetleaf” value in assay [5] and in [11] was 0% throughout. For the same molecule, the “% control, Nutsedge” value in [6] and in assay [12] was 0% throughout. In addition, the “% control, Morningglory” value in assay [7] and in [10] was 0% throughout. The “% control, Marigold” value with marigold (Tagetes spp.) [8] and with marigold (Tagetes spp.) [19] was 0% in each case. Also, the “% control, Wild oat” value with wild oats (Avena fatua) [9] is recorded as 60%; in the assay on wild oats (Avena fatua) [14], 70%. In addition, the “% control, Foxtail” value in the assay with foxtail (Setaria spp.) [13] is 100%; in the assay with foxtail (Setaria spp.) [17], 90%. In addition, the “% control, Tomato” value in assay [15] and in assay [16] was 0% throughout.
For the molecule `CCOC(=O)C(C)Oc1ccc(Oc2ccc(C(F)(F)F)cc2Cl)cc1[N+](=O)[O-]` (stereo not shown) [Example 9], the pest or weed control at 2241.7 g/ha in assay [1] was 40%; in assay [2] it was 40%; in assay [3] it was 0%; in assay [4], 0%; in assay [5], 20%; in [6], 0%. The pest or weed control at 2241.7 g/ha (in [7]; in the assay with marigold (Tagetes spp.) [8]; in the assay on wild oats (Avena fatua) [9]; in assay [10]; in assay [11]; in assay [12]) was 0% each time. The pest or weed control at 2241.7 g/ha is 0% in the assay with foxtail (Setaria spp.) [13]; 0% in the assay with wild oats (Avena fatua) [14]; 0% in assay [15]; 90% in assay [16]; 0% in the assay with foxtail (Setaria spp.) [17]; 0% in assay [18]. The pest or weed control at 2241.7 g/ha with marigold (Tagetes spp.) [19] was 50%; in [20], 0%.

The record behind these values is patent US4335249A, “Herbicidal diphenyl ethers, sulfides, sulfoxides and sulfones” (Rohm and Haas Company, priority 1976, dated 1982).
